What all share (format): cell-based
Data set [1] concerns A549. Briefly: Cytotoxicity against human A549 cells assessed as reduction in cell viability after 24 hrs by MTS assay. The conditions noted are these: a549, 24 h. In general terms: Tetrazolium assays rely on reduction of a dye to a coloured formazan, in cell work by metabolically active cells.
Data set [2] concerns A549. The experiment in a line: Cytotoxicity against human A549 cells assessed as reduction in cell viability at 3 to 120 uM by MTS assay. The conditions noted are these: a549, 120 µM, TDE = time-dependent effect.
Data set [3] is described as follows: Cytotoxicity against human BEAS2B cells assessed as reduction in cell viability after 24 hrs by MTS assay. The conditions noted are these: beas-2b.
Data set [4] concerns A549. The experiment in a line: Cytotoxicity against human A549 cells assessed as reduction in cell viability after 48 hrs by MTS assay. To be noted: a549, 48 h.
Data set [5] relates to RBL-2H3. The experiment in a line: Cytotoxicity against rat RBL2H3 cells assessed as reduction in cell viability at 3 to 120 uM by MTS assay. To be noted: rbl-2h3, 120 µM, TDE = time-dependent effect.
The test system of data set [6] is RBL-2H3. Briefly: Cytotoxicity against rat RBL2H3 cells assessed as reduction in cell viability after 24 hrs by MTS assay. The conditions noted are these: rbl-2h3, 24 h.
In data set [7] the test system is RBL-2H3. The experiment in a line: Cytotoxicity against rat RBL2H3 cells assessed as reduction in cell viability after 48 hrs by MTS assay. The conditions noted are these: rbl-2h3, 48 h.
The nature of data set [8]: Cytotoxicity against human BEAS2B cells assessed as reduction in cell viability after 48 hrs by MTS assay. The conditions noted are these: beas-2b.
Data set [9] can be described thus: Cytotoxicity against human BEAS2B cells assessed as reduction in cell viability at 3 to 120 uM by MTS assay. The conditions noted are these: beas-2b, TDE = time-dependent effect.

Molecules are shown by their SMILES.

Consider `C=C1CC[C@@H]2[C@](C)(CO)[C@H](O)CC[C@@]2(C)[C@@H]1C/C=C1/C(=O)OC[C@H]1O` [ANDROGRAPHOLIDE], for which the Activity result in data set [1] is listed as “Dose-dependent effect”; in data set [2] it was “tde”; in [3], “Dose-dependent effect”; in data set [4] it was “Dose-dependent effect”; in [5], “tde”; in data set [6], “Dose-dependent effect”. In addition, the figures for the Activity result in data set [7], in data set [8] and in data set [9] were “Dose-dependent effect”, “Dose-dependent effect” and “tde”, respectively.

The values are drawn from ChEMBL document CHEMBL1811903, “Protective role of 14-deoxy-11,12-didehydroandrographolide, a noncytotoxic analogue of andrographolide, in allergic airway inflammation” (J Nat Prod, 2011).
